The record followed here is patent US9067977B2, “Peptides derivatized with A-B-C-D- and their therapeutical use” (Novo Nordisk A/S, priority 2007, dated 2015).

Starred links: 1 amine or outer side, 2 acyl side, 3 side chain; linkers in the order of their positions; H or OH if unused. Non-standard residues stand in square brackets, D forms with d. Residues, ends and D or L forms follow the SMILES beside them. Groups on a side chain read outwards from the residue. *: point of attachment. C18 diacid = O=C(O)CCCCCCCCCCCCCCCCC(=O)*; d(βAsp) = O=C(O)[C@@H](CC(=O)[*:2])N[*:1]; 2Nal = N[C@@H](Cc1ccc2ccccc2c1)C(=O)O; AEEA = NCCOCCOCC(=O)O; Aib = CC(C)(N)C(=O)O; Inp = O=C(O)C1CCNCC1

In this data set the target is human serum albumin (HSA) (Homo sapiens, UniProt P02768). Briefly: Albumin binding affinity, competition scintillation proximity assay. To be noted: for EC50 at 20 h: human, pH 7.4. Background: In a scintillation proximity assay essentially only radioactivity close to the scintillant gives light.
Sequence of human serum albumin (HSA) (P02768 25-609): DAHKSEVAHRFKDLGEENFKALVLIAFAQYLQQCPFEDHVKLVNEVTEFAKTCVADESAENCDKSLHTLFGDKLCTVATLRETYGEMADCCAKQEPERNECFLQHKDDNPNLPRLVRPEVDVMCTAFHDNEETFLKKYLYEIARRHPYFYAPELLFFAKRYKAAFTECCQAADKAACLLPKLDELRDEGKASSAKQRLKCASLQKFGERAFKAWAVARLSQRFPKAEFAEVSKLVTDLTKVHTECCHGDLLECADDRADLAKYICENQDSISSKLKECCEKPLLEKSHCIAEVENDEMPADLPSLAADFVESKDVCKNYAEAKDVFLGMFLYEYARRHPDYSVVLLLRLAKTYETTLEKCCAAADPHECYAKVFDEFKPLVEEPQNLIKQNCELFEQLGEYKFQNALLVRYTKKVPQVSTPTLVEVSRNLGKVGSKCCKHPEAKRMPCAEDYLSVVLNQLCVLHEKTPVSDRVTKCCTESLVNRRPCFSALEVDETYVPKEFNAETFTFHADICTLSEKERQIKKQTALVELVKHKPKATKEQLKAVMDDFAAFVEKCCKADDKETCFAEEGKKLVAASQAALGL

Protocol: Streptavidin-SPA beads (GE Healthcare RPNQ0009) were incubated with biotinylated HSA for 5 hours. The beads were washed with buffer to remove unbound HSA. […] After 20 hours of gentle rocking at room temperature the plates were centrifuged and counted on a TopCounter.

As to `CC[C@H](C)[C@H](NC(=O)[C@H](Cc1ccccc1)NC(=O)[C@H](CCC(=O)O)NC(=O)[C@H](CCCNC(=N)N)NC(=O)[C@H](C)NC(=O)[C@H](C)NC(=O)[C@H](CCC(N)=O)NC(=O)CNC(=O)[C@H](CCC(=O)O)NC(=O)[C@H](CC(C)C)NC(=O)[C@H](Cc1ccc(O)cc1)NC(=O)[C@H](CO)NC(=O)[C@H](CO)NC(=O)[C@@H](NC(=O)[C@H](CC(=O)O)NC(=O)[C@H](CO)NC(=O)[C@@H](NC(=O)[C@H](Cc1ccccc1)NC(=O)[C@@H](NC(=O)CNC(=O)[C@H](CCC(=O)O)NC(=O)[C@H](C)NC(=O)CCc1c[nH]cn1)[C@@H](C)O)[C@@H](C)O)C(C)C)C(=O)N[C@@H](C)C(=O)N[C@@H](Cc1c[nH]c2ccccc12)C(=O)N[C@@H](CC(C)C)C(=O)N[C@H](C(=O)N[C@@H](CCCNC(=N)N)C(=O)NCC(=O)N[C@@H](CCCNC(=N)N)C(=O)N[C@@H](CCCCNC(=O)COCCOCCNC(=O)COCCOCCNC(=O)CC[C@H](NC(=O)C1CCN(C(=O)CCCCCCCCCCCCCCCCCCC(=O)O)CC1)C(=O)O)C(=O)O)C(C)C` [Example 60, N-epsilon37-(2-{2-[2-(2-{2-[2-((S)-4-Carboxy-4-{[1-(19-carboxynonadecanoyl)piperidine-4-carbonyl]amino}butyrylamino)ethoxy]ethoxy}acetylamino)ethoxy]ethoxy}acetyl) [DesaminoHis7,Arg26,Arg34,Lys37]GLP-1-(7-37)], the concentration for a half-maximal effect (EC50) – broadly, the concentration needed to bring the measured effect to its halfway point – was in the range of 300 to 800 nM.

Compound `CC[C@H](C)[C@H](NC(=O)[C@H](Cc1ccccc1)NC(=O)[C@H](CCC(=O)O)NC(=O)[C@H](CCCNC(=N)N)NC(=O)[C@H](C)NC(=O)[C@H](C)NC(=O)[C@H](CCC(N)=O)NC(=O)CNC(=O)[C@H](CCC(=O)O)NC(=O)[C@H](CC(C)C)NC(=O)[C@H](Cc1ccc(O)cc1)NC(=O)[C@H](CO)NC(=O)[C@H](CO)NC(=O)[C@@H](NC(=O)[C@H](CC(=O)O)NC(=O)[C@H](CO)NC(=O)[C@@H](NC(=O)[C@H](Cc1ccccc1)NC(=O)[C@@H](NC(=O)CNC(=O)[C@H](CCC(=O)O)NC(=O)[C@H](C)NC(=O)CCc1c[nH]cn1)[C@@H](C)O)[C@@H](C)O)C(C)C)C(=O)N[C@@H](C)C(=O)N[C@@H](Cc1c[nH]c2ccccc12)C(=O)N[C@@H](CC(C)C)C(=O)N[C@H](C(=O)N[C@@H](CCCNC(=N)N)C(=O)NCC(=O)N[C@@H](CCCNC(=N)N)C(=O)N[C@@H](CCCCNC(=O)COCCOCCNC(=O)COCCOCCNC(=O)CC[C@H](NC(=O)[C@H]1CC[C@H](CNC(=O)CCCCCCCCCCCCCCCCCCC(=O)O)CC1)C(=O)O)C(=O)O)C(C)C` [Example 31, N-epsilon37-[2-(2-{2-[2-(2-{2-[(S)-4-Carboxy-4-({trans-4-[(19-carboxy-nonadecanoylamino)methyl]cyclohexanecarbonyl}amino)butyrylamino]ethoxy}ethoxy)acetylamino]ethoxy}ethoxy)acetyl][DesaminoHis7,Arg26,Arg34,Lys37]GLP-1-(7-37)] gave a half-maximal effective concentration (EC50) at 20 h (biotinylated human serum albumin on streptavidin-SPA beads) of 300 to 800 nM.

For the compound `CC[C@H](C)[C@H](NC(=O)[C@H](Cc1ccccc1)NC(=O)[C@H](CCC(=O)O)NC(=O)[C@H](CCCNC(=N)N)NC(=O)[C@H](C)NC(=O)[C@H](C)NC(=O)[C@H](CCC(N)=O)NC(=O)[C@H](CCC(=O)O)NC(=O)[C@H](CCC(=O)O)NC(=O)[C@H](CC(C)C)NC(=O)[C@H](Cc1ccc(O)cc1)NC(=O)[C@H](CO)NC(=O)[C@H](CO)NC(=O)[C@@H](NC(=O)[C@H](CC(=O)O)NC(=O)[C@H](CO)NC(=O)[C@@H](NC(=O)[C@H](Cc1ccccc1)NC(=O)[C@@H](NC(=O)CNC(=O)[C@H](CCC(=O)O)NC(=O)[C@H](C)NC(=O)Cc1c[nH]cn1)[C@@H](C)O)[C@@H](C)O)C(C)C)C(=O)N[C@@H](C)C(=O)N[C@@H](Cc1c[nH]c2ccccc12)C(=O)N[C@@H](CC(C)C)C(=O)N[C@H](C(=O)N[C@@H](CCCNC(=N)N)C(=O)NCC(=O)N[C@@H](CCCNC(=N)N)C(=O)N[C@@H](CCCCNC(=O)COCCOCCNC(=O)COCCOCCNC(=O)CC[C@H](NC(=O)[C@H]1CC[C@H](CNC(=O)CCCCCCCCCCCCCCCCCCC(=O)O)CC1)C(=O)O)C(=O)O)C(C)C` [Example 54, N-alpha8-[2-(4-imidazolyl)acetyl] N-epsilon37-[2-(2-{2-[2-(2-{2-[(S)-4-Carboxy-4-({trans-4-[(19-carboxynonadecanoylamino)methyl]cyclohexanecarbonyl}amino)butyrylamino]ethoxy}ethoxy)acetylamino]ethoxy}ethoxy)acetyl][Glu22,Arg26,Arg34,Lys37]GLP-1-(8-37)], the concentration for a half-maximal effect (EC50) at 20 h was 150 to 300 nM.

`CC[C@H](C)[C@H](NC(=O)[C@H](Cc1ccccc1)NC(=O)[C@H](CCC(=O)O)NC(=O)[C@H](CCCCNC(=O)COCCOCCNC(=O)CC[C@H](NC(=O)CC[C@H](NC(=O)CCCCCCCCCCCNC(=O)CCCS(=O)(=O)NC(=O)CCCCCCCCCCCCCCCc1nnn[nH]1)C(=O)O)C(=O)O)NC(=O)[C@H](C)NC(=O)[C@H](C)NC(=O)[C@H](CCC(N)=O)NC(=O)CNC(=O)[C@H](CCC(=O)O)NC(=O)[C@H](CC(C)C)NC(=O)[C@H](Cc1ccc(O)cc1)NC(=O)[C@H](CO)NC(=O)[C@H](CO)NC(=O)[C@@H](NC(=O)[C@H](CC(=O)O)NC(=O)[C@H](CO)NC(=O)[C@@H](NC(=O)[C@H](Cc1ccccc1)NC(=O)[C@@H](NC(=O)CNC(=O)[C@H](CCC(=O)O)NC(=O)C(C)(C)NC(=O)[C@@H](N)Cc1c[nH]cn1)[C@@H](C)O)[C@@H](C)O)C(C)C)C(=O)N[C@@H](C)C(=O)N[C@@H](Cc1c[nH]c2ccccc12)C(=O)N[C@@H](CC(C)C)C(=O)N[C@H](C(=O)N[C@@H](CCCNC(=N)N)C(=O)NCC(=O)N[C@@H](CCCNC(=N)N)C(N)=O)C(C)C` [Example 44, N-epsilon26-[2-(2-{2-[(S)-4-Carboxy-4-((S)-4-carboxy-4-{12-[4-(16-(1H-tetrazol-5-yl)hexadecanoylsulfamoyl)butyrylamino]dodecanoylamino}butyrylamino)butyrylamino]ethoxy}ethoxy)acetyl][Aib8,Arg34]GLP-1-(7-36)amide] yielded a 50% effective concentration (EC50) of 1 to 100 nM.

`CC[C@H](C)[C@H](NC(=O)[C@H](Cc1ccccc1)NC(=O)[C@H](CCC(=O)O)NC(=O)[C@H](CCCNC(=N)N)NC(=O)[C@H](C)NC(=O)[C@H](C)NC(=O)[C@H](CCC(N)=O)NC(=O)[C@H](CCC(=O)O)NC(=O)[C@H](CCC(=O)O)NC(=O)[C@H](CC(C)C)NC(=O)[C@H](Cc1ccc(O)cc1)NC(=O)[C@H](CO)NC(=O)[C@H](CO)NC(=O)[C@@H](NC(=O)[C@H](CC(=O)O)NC(=O)[C@H](CO)NC(=O)[C@@H](NC(=O)[C@H](Cc1ccccc1)NC(=O)[C@@H](NC(=O)CNC(=O)[C@H](CCC(=O)O)NC(=O)[C@H](C)NC(=O)CCc1c[nH]cn1)[C@@H](C)O)[C@@H](C)O)C(C)C)C(=O)N[C@@H](C)C(=O)N[C@@H](Cc1c[nH]c2ccccc12)C(=O)N[C@@H](CC(C)C)C(=O)N[C@H](C(=O)N[C@@H](CCCNC(=N)N)C(=O)NCC(=O)N[C@@H](CCCNC(=N)N)C(=O)N[C@@H](CCCCNC(=O)COCCOCCNC(=O)CC[C@H](NC(=O)CC[C@H](NC(=O)CCCCCCCCCCCNC(=O)CCCS(=O)(=O)NC(=O)CCCCCCCCCCCCCCCc1nnn(C(C)(C)C)n1)C(=O)O)C(=O)O)C(=O)O)C(C)C` [Example 64, N-epsilon37-{2-[2-(2-{(S)-4-[(S)-4-(12-{4-[16-(2-tert-Butyl-2H-tetrazol-5-yl)-hexadecanoylsulfamoyl]butyrylamino}dodecanoylamino)-4-carboxybutyrylamino]-4-carboxybutyrylamino}ethoxy)ethoxy]acetyl}[DesaminoHis7,Glu22,Arg26,Arg34,Lys37] GLP-1 (7-37)] came in with a concentration giving a half-maximal response (EC50) of 1 to 100 nM.

The compound `CC[C@H](C)[C@H](NC(=O)[C@H](Cc1ccccc1)NC(=O)[C@H](CCC(=O)O)NC(=O)[C@H](CCCNC(=N)N)NC(=O)[C@H](C)NC(=O)[C@H](C)NC(=O)[C@H](CCC(N)=O)NC(=O)[C@H](CCC(=O)O)NC(=O)[C@H](CCC(=O)O)NC(=O)[C@H](CC(C)C)NC(=O)[C@H](Cc1ccc(O)cc1)NC(=O)[C@H](CO)NC(=O)[C@H](CO)NC(=O)[C@@H](NC(=O)[C@H](CC(=O)O)NC(=O)[C@H](CO)NC(=O)[C@@H](NC(=O)[C@H](Cc1ccccc1)NC(=O)[C@@H](NC(=O)CNC(=O)[C@H](CCC(=O)O)NC(=O)[C@H](C)NC(=O)CCc1c[nH]cn1)[C@@H](C)O)[C@@H](C)O)C(C)C)C(=O)N[C@@H](C)C(=O)N[C@@H](Cc1c[nH]c2ccccc12)C(=O)N[C@@H](CC(C)C)C(=O)N[C@H](C(=O)N[C@@H](CCCNC(=N)N)C(=O)NCC(=O)N[C@@H](CCCNC(=N)N)C(=O)N[C@@H](CCCCNC(=O)COCCOCCNC(=O)COCCOCCNC(=O)C[C@@H](NC(=O)C1CCN(C(=O)CCCCCCCCCCCCCCCCCCC(=O)O)CC1)C(=O)O)C(N)=O)C(C)C` [Example 1, N-ε^37{2-[2-(2-{2-[2-((R)-3-carboxy-3-{[1-(19-carboxynonadecanoyl)piperidine-4-carbonyl]amino}propionylamino)ethoxy]ethoxy}acetylamino)ethoxy]ethoxy}acetyl [desaminoHis^7,Glu^22,Arg^26,Arg^34,Lys^37]GLP-1(7-37)amide] gave an EC50 of 300 to 800 nM.

For the compound `CC[C@H](C)[C@H](NC(=O)[C@H](Cc1ccc2ccccc2c1)NC(=O)[C@H](CCC(=O)O)NC(=O)[C@H](CCCNC(=N)N)NC(=O)[C@H](C)NC(=O)[C@H](C)NC(=O)[C@H](CCC(N)=O)NC(=O)CNC(=O)[C@H](CCC(=O)O)NC(=O)[C@H](CCCCNC(=O)COCCOCCNC(=O)COCCOCCNC(=O)C[C@@H](NC(=O)C1CCN(C(=O)CCCCCCCCCCCCCCCCC(=O)O)CC1)C(=O)O)NC(=O)[C@H](Cc1ccc(O)cc1)NC(=O)[C@H](CO)NC(=O)[C@H](CO)NC(=O)[C@@H](NC(=O)[C@H](CC(=O)O)NC(=O)[C@H](CO)NC(=O)[C@@H](NC(=O)[C@H](Cc1ccccc1)NC(=O)[C@@H](NC(=O)CNC(=O)[C@H](CCC(=O)O)NC(=O)C(C)(C)NC(=O)[C@@H](N)Cc1c[nH]cn1)[C@@H](C)O)[C@@H](C)O)C(C)C)C(=O)N[C@@H](CCC(=O)O)C(=O)N[C@@H](Cc1c[nH]c2ccccc12)C(=O)N[C@@H](CC(C)C)C(=O)N[C@H](C(=O)N[C@@H](CCCCN)C(=O)NCC(=O)N[C@@H](CCCNC(=N)N)C(=O)NCC(N)=O)C(C)C` [Example 11, N-ε^20({2-[2-(2-{2-[2-((R)-3-carboxy-3-{[1-(17-carboxyheptadecanoyl)piperidine-4-carbonyl]amino}propionylamino)ethoxy]ethoxy}acetylamino)ethoxy]ethoxy}acetyl) [Aib^8,Lys^20,Arg^26,2-Naphtylalanine^28, Glu^30]GLP-1 (7-37)amide] (H-H[Aib]EGTFTSDVSSYK([AEEA-AEEA-d(βAsp)-Inp-C18 diacid])EGQAARE[2Nal]IEWLVKGRG-NH2; N-terminus assumed), the concentration for a half-maximal effect (EC50) was in the range of 800 to 2000 nM.
